Results on two molecules are retold here after ChEMBL document CHEMBL5252615, “Synthesis, biological activity and mechanism of action of novel allosecurinine derivatives as potential antitumor agents” (Bioorg Med Chem, 2023).

Common to all, as to format: functional, cell-based
Assay [1] concerns NB-4. Kind of assay: Induction of differentiation of human NB4 cells assessed as increase in CD11b expression at 0.5 uM measured after 72 hrs by flow cytometric analysis. (In general: A flow cytometer gives signals particle by particle.)
Assay [2] relates to HL-60. Put plainly: Induction of differentiation of human HL-60 cells assessed as increase in CD11b expression at 0.5 uM measured after 72 hrs by flow cytometric analysis.
In assay [3] the test system is KG-1. Kind of assay: Induction of differentiation of human KG-1 cells assessed as increase in CD11b expression at 0.5 uM measured after 72 hrs by flow cytometric analysis.
The subject of assay [4] is THP-1. Kind of assay: Induction of differentiation of human THP1 cells assessed as increase in CD11b expression at 0.5 uM measured after 72 hrs by flow cytometric analysis.
Assay [5] relates to HL-60. Kind of assay: Antitumor activity against human HL-60 cells assessed as reduction in cell viability incubated for 72 hrs. The note with it: HL-60, 72 h.
The subject of assay [6] is SK-OV-3. Put plainly: Antitumor activity against taxol-resistant human SK-OV-3 cells assessed as reduction in cell viability incubated for 72 hrs. The note with it: SK-OV-3, 72 h.
In assay [7] the test system is U-937. Put plainly: Induction of differentiation of human U-937 cells assessed as increase in CD11b expression at 0.5 uM measured after 72 hrs by flow cytometric analysis.
Assay [8] concerns THP-1. Kind of assay: Antitumor activity against human THP-1 cells assessed as reduction in cell viability incubated for 72 hrs. The note with it: THP-1, 72 h.
The test system of assay [9] is U-937. Put plainly: Antitumor activity against human U-937 cells assessed as reduction in cell viability incubated for 72 hrs. The conditions noted are these: U-937, 72 h.
The test system of assay [10] is SK-OV-3. Put plainly: Antitumor activity against human SK-OV-3 cells assessed as reduction in cell viability incubated for 72 hrs. The note with it: SK-OV-3, 72 h.
In the next assay the test system is K562. Put plainly: Antitumor activity against human K562 cells assessed as reduction in cell viability incubated for 72 hrs. The note with it: K562, 72 h.
In assay [11] the test system is KG-1. Kind of assay: Antitumor activity against human KG-1 cells assessed as reduction in cell viability incubated for 72 hrs. The conditions noted are these: KG-1, 72 h.
A further assay deals with SU-DHL-2. Kind of assay: Antitumor activity against human SUDHL2 cells assessed as reduction in cell viability incubated for 72 hrs. The conditions noted are these: SU-DHL-2, 72 h.
In assay [12] the test system is NB-4. Kind of assay: Antitumor activity against human NB4 cells assessed as reduction in cell viability incubated for 72 hrs. The note with it: NB-4, 72 h.

For orientation: IC50 means the concentration at which inhibition is half-maximal.

The source made the active and inactive calls. The calls are words filed in the database; no cut-off is given here.

Take `O=C1O[C@@]23C[C@@H](C=CC2=C1C(O)c1cccc([N+](=O)[O-])c1)N1CCCC[C@H]13` (stereo partly drawn): the outcome in the assay on NB-4 [1], in the assay with HL-60 [2], in the assay on KG-1 [3], with THP-1 [4] and with U-937 [7] was Active. Besides, the IC50 in the assay with HL-60 [5] was found to be 6.2 µM; in the assay on SK-OV-3 [6] it was 3.5 µM; with THP-1 [8], 12 µM; in the assay on U-937 [9], 4.64 µM; in the assay with SK-OV-3 [10], 3.11 µM; in the assay with K562, 2.69 µM. The IC50 with KG-1 [11] turned out to be 1.98 µM; in the assay on SU-DHL-2, 9.28 µM; in the assay with NB-4 [12], 3.01 µM.
Regarding `O=C1O[C@@]23C[C@@H](C=CC2=C1C(O)c1ccc(Cl)cc1)N1CCCC[C@H]13` (stereo partly drawn), the IC50 amounted to 11.8 µM with HL-60 [5]; 11 µM in the assay with SK-OV-3 [6]; 14.8 µM in the assay with THP-1 [8]; 7.56 µM with U-937 [9]; 9.94 µM in the assay with SK-OV-3 [10]; 4.47 µM in the assay with K562. Also, the IC50 in the assay on KG-1 [11] came to 3.95 µM; in the assay on SU-DHL-2, 18.3 µM; with NB-4 [12], 10.1 µM.
